According to patent US20090181991A1, “COMPOUNDS AND COMPOSITIONS AS PROTEIN KINASE INHIBITORS” (IRM LLC, priority 2005, published 2009):

Tests used:
Experiment in all cases: Upstate KinaseProfiler radio-enzymatic filter binding assay
Type in all cases: biochemical
Settings in all cases: 10 μM compound, remaining activity
[1] = biological target: T1, Bmx (Homo sapiens, UniProt P51813)
T1 construct: purchased Upstate
T1 sequence (P51813 1-675): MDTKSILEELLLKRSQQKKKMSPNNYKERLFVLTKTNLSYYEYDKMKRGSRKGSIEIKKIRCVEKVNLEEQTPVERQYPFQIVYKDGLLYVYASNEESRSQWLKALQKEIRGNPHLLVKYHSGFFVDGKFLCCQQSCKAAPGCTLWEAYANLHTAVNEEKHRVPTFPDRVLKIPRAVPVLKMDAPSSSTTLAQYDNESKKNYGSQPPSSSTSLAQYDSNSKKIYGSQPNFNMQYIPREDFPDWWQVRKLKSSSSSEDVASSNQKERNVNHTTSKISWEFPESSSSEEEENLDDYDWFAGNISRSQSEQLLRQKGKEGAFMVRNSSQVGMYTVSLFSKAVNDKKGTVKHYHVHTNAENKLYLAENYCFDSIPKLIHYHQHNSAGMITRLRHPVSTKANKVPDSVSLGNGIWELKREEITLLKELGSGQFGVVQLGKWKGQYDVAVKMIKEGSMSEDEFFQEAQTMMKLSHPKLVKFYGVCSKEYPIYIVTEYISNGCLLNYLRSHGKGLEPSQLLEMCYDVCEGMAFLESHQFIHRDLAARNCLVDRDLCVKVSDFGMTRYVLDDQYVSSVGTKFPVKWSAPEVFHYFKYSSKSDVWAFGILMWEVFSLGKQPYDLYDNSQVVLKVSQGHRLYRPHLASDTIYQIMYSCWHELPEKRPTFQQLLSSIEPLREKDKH
Protocol: (§1) Percentage inhibition is calculated for each reaction.

[2] = biological target: T2, Lck (Homo sapiens, UniProt P06239)
T2 construct: purchased Upstate
T2 sequence (P06239 whole entry): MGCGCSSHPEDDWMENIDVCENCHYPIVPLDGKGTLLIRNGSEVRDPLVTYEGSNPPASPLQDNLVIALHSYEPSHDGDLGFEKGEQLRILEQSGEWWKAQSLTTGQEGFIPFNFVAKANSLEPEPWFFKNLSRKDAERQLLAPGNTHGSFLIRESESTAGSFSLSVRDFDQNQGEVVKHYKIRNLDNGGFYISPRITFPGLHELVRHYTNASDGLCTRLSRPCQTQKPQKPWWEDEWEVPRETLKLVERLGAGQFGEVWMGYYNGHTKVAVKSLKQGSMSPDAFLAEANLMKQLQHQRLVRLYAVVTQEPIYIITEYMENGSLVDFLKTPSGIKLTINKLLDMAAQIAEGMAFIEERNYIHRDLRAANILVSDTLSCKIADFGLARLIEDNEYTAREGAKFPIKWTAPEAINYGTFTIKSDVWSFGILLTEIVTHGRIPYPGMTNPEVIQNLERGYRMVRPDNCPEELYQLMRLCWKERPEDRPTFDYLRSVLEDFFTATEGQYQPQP
Protocol: as §1

[3] = biological target: T3, Flt3 (Homo sapiens, UniProt P36888)
T3 construct: purchased Upstate
T3 sequence (P36888 27-993): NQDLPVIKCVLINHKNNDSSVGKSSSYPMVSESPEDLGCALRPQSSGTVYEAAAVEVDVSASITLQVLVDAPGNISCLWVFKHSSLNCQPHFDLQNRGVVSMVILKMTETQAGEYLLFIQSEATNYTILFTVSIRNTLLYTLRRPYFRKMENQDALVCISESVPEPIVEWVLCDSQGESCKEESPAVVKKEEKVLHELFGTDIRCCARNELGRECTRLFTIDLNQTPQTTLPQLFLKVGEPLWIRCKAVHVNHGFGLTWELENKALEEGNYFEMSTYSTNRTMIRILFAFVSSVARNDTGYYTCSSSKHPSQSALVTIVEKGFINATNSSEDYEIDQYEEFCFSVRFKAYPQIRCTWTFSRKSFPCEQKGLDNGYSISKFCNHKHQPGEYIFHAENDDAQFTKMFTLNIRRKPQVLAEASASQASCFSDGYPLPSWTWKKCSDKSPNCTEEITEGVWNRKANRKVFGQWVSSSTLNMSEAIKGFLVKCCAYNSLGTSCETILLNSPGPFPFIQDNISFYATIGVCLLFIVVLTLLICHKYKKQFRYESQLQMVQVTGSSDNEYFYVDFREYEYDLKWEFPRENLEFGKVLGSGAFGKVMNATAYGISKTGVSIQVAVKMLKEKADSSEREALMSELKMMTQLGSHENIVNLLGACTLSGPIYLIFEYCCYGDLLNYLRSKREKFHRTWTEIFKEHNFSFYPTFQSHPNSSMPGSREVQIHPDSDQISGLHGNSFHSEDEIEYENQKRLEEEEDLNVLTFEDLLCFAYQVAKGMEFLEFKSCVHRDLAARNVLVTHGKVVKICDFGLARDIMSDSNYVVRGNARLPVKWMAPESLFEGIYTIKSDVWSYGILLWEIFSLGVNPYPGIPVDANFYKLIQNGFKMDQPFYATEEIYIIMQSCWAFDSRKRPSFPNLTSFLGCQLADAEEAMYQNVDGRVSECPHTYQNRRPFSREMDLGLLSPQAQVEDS
Protocol: as §1

[4] = biological target: T4, SAPK2a (Homo sapiens, UniProt Q16539)
T4 construct: purchased Upstate
T4 sequence (Q16539 whole entry): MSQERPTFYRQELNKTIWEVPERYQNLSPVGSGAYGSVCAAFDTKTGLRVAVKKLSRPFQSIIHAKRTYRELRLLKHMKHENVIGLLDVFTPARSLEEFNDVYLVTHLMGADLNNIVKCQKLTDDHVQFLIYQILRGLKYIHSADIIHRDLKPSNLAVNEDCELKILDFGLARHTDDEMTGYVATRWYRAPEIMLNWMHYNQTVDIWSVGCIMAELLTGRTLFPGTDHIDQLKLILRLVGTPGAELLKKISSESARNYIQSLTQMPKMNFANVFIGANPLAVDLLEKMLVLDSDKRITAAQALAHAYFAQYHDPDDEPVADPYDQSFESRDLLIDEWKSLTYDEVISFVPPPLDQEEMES
Protocol: as §1

Measured: kinase activity

O=C(Nc1cccc(Nc2cc(Nc3cccc(C(F)(F)F)c3)ncn2)c1)C1CC1 [Example 1, Cyclopropanecarboxylic acid {3-[6-(3-trifluoromethyl-phenylamino)-pyrimidin-4-ylamino]-phenyl}-amide]
less than 50%: all assays above
